pIC50: −log10 of the molar value. Where a SMILES comes first, the peptide text is derived from it. Bridges are numbered along the chain shown (N, C = ends). [ ]: non-standard residue; d: D form. The star is where a group is joined. Phe(4-COOH) = N[C@@H](Cc1ccc(C(=O)O)cc1)C(=O)O; Bip = N[C@@H](Cc1ccc(-c2ccccc2)cc1)C(=O)O; Phe(3-Me) = Cc1cccc(C[C@H](N)C(=O)O)c1; Val(3-OH) = CC(C)(O)[C@H](N)C(=O)O; 4Pal = N[C@@H](Cc1ccncc1)C(=O)O; Cha = N[C@@H](CC1CCCCC1)C(=O)O; Cit = NC(=O)NCCC[C@H](N)C(=O)O; Carboxymethyl = O=C(O)C*; NMeA = CN[C@@H](C)C(=O)O; Orn = NCCC[C@H](N)C(=O)O; Aun = NCCCCCCCCCCC(=O)O; Dab = NCC[C@H](N)C(=O)O; AEEA = NCCOCCOCC(=O)O

The target in the assay is T1, PD-1/PD-L1 interaction (PE-labeled human PD-L1-Ig binding to Jurkat cell line over-expressing human PD-1) (Homo sapiens, UniProt Q15116).
T1 construct: expressed in transfected cells; host or cells: Jurkat
T1 sequence (Q15116 25-288): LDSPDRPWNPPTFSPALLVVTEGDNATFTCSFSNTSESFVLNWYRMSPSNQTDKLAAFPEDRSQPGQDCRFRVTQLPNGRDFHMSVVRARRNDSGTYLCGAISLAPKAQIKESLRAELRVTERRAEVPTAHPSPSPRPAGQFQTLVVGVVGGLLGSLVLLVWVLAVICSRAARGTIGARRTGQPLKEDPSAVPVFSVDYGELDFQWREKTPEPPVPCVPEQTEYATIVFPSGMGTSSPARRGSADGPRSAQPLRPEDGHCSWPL
In words: Jurkat-PD-1 Cell Binding High-Content Screening Assay (CBA). To be noted: Jurkat-hPD-1 cells, PE-labeled PD-L1-Ig 20 nM final; read-out: Jurkat HPD1 PDL1 IC50. The procedure, abridged: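 High-content imaging read-out of PE-PD-L1-Ig binding (20 nM final, 1 h) to Jurkat-hPD-1 cells, after 2 h compound exposure at 37 °C in DMEM with 10% FCS. Nuclei counterstained with Hoechst 33342 after paraformaldehyde fixation.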
The pIC50 is the negative decadic logarithm of the IC50, by convention in mol/L. Regarding `CC(C)C[C@H]1NC(=O)[C@H](C)N(C)C(=O)[C@H](Cc2ccc(OCC(=O)O)cc2)NC(=O)[C@H](Cc2ccc(-c3ccccc3)cc2)NC(=O)[C@H](Cc2ccc(OCC(=O)O)cc2)NC(=O)[C@H](Cc2c[nH]c3ccccc23)NC(=O)[C@H](CC(=O)O)NC(=O)[C@H](Cc2ccc(OCC(=O)O)cc2)NC(=O)[C@H]([C@@H](C)O)NC(=O)CSC[C@@H](C(=O)N[C@@H](CCN)C(=O)NCCOCCOCC(=O)NCCCCCCCCCCC(=O)O)NC(=O)[C@H](CC(N)=O)NC(=O)[C@H](C(C)C)NC(=O)[C@H](CC2CCCCC2)NC(=O)[C@H](CCN)NC1=O` [Example 1393] ({CH2CO}-TY(Carboxymethyl)DWY(Carboxymethyl)[Bip]Y(Carboxymethyl)[NMeA][dL][Dab][Cha]VNC[Dab][AEEA][Aun]-OH; thioether N-14), the pIC50 was 7.48.

As to `CC(C)C[C@H]1NC(=O)[C@H](C)N(C)C(=O)[C@H](Cc2ccc(OCC(=O)O)cc2)NC(=O)[C@H](Cc2ccc(-c3ccccc3)cc2)NC(=O)[C@H](Cc2ccc(OCC(=O)O)cc2)NC(=O)[C@H](Cc2c[nH]c3ccccc23)NC(=O)[C@H](CC(=O)O)NC(=O)[C@H](Cc2ccc(OCC(=O)O)cc2)NC(=O)[C@H]([C@@H](C)O)NC(=O)CSC[C@@H](C(=O)N[C@@H](CCCN)C(=O)NCCOCCOCC(=O)NCCCCCCCCCCC(=O)O)NC(=O)[C@H]([C@@H](C)O)NC(=O)[C@H](C(C)C)NC(=O)[C@H](CC2CCCCC2)NC(=O)[C@H](CCN)NC1=O` [Example 1394] ({CH2CO}-TY(Carboxymethyl)DWY(Carboxymethyl)[Bip]Y(Carboxymethyl)[NMeA][dL][Dab][Cha]VTC[Orn][AEEA][Aun]-OH; thioether N-14), the negative-log IC50 (pIC50) is 6.85. The figure for `CC(C)C[C@H]1NC(=O)[C@H](C)N(C)C(=O)[C@H](Cc2ccc(OCC(=O)O)cc2)NC(=O)[C@H](Cc2ccc(-c3ccccc3)cc2)NC(=O)[C@H](Cc2ccc(OCC(=O)O)cc2)NC(=O)[C@H](Cc2c[nH]c3ccccc23)NC(=O)[C@H](CC(=O)O)NC(=O)[C@H](Cc2ccc(OCC(=O)O)cc2)NC(=O)[C@H]([C@@H](C)O)NC(=O)CSC[C@@H](C(=O)N[C@@H](CCCN)C(=O)NCCOCCOCC(=O)NCCCCCCCCCCC(=O)O)NC(=O)[C@H](CO)NC(=O)[C@H](C(C)C)NC(=O)[C@H](CC2CCCCC2)NC(=O)[C@H](CCN)NC1=O` [Example 1395] ({CH2CO}-TY(Carboxymethyl)DWY(Carboxymethyl)[Bip]Y(Carboxymethyl)[NMeA][dL][Dab][Cha]VSC[Orn][AEEA][Aun]-OH; thioether N-14) is 7.25; for `CC(C)C[C@H]1NC(=O)[C@H](C)N(C)C(=O)[C@H](Cc2ccc(OCC(=O)O)cc2)NC(=O)[C@H](Cc2ccc(-c3ccccc3)cc2)NC(=O)[C@H](Cc2ccc(OCC(=O)O)cc2)NC(=O)[C@H](Cc2c[nH]c3ccccc23)NC(=O)[C@H](CC(=O)O)NC(=O)[C@H](Cc2ccc(OCC(=O)O)cc2)NC(=O)[C@H]([C@@H](C)O)NC(=O)CSC[C@@H](C(=O)N[C@@H](CCCN)C(=O)NCCOCCOCC(=O)NCCCCCCCCCCC(=O)O)NC(=O)[C@H](CCC(=O)O)NC(=O)[C@H](C(C)C)NC(=O)[C@H](CC2CCCCC2)NC(=O)[C@H](CCN)NC1=O` [Example 1396] ({CH2CO}-TY(Carboxymethyl)DWY(Carboxymethyl)[Bip]Y(Carboxymethyl)[NMeA][dL][Dab][Cha]VEC[Orn][AEEA][Aun]-OH; thioether N-14) it is 6.52. Consider `CC(C)C[C@H]1NC(=O)[C@H](C)N(C)C(=O)[C@H](Cc2ccc(OCC(=O)O)cc2)NC(=O)[C@H](Cc2ccc(-c3ccccc3)cc2)NC(=O)[C@H](Cc2ccc(OCC(=O)O)cc2)NC(=O)[C@H](Cc2c[nH]c3ccccc23)NC(=O)[C@H](CC(=O)O)NC(=O)[C@H](Cc2ccc(OCC(=O)O)cc2)NC(=O)[C@H]([C@@H](C)O)NC(=O)CSC[C@@H](C(=O)N[C@@H](CCCN)C(=O)NCCOCCOCC(=O)NCCCCCCCCCCC(=O)O)NC(=O)[C@H](CC(N)=O)NC(=O)[C@H](C(C)C)NC(=O)[C@H](CC2CCCCC2)NC(=O)[C@H](CCN)NC1=O` [Example 1397] ({CH2CO}-TY(Carboxymethyl)DWY(Carboxymethyl)[Bip]Y(Carboxymethyl)[NMeA][dL][Dab][Cha]VNC[Orn][AEEA][Aun]-OH; thioether N-14), for which the pIC50 was 6.91.

With `CC(C)C[C@H]1NC(=O)[C@H](C)N(C)C(=O)[C@H](Cc2ccc(OCC(=O)O)cc2)NC(=O)[C@H](Cc2ccc(-c3ccccc3)cc2)NC(=O)[C@H](Cc2ccc(OCC(=O)O)cc2)NC(=O)[C@H](Cc2c[nH]c3ccccc23)NC(=O)[C@H](CC(=O)O)NC(=O)[C@H](Cc2ccc(OCC(=O)O)cc2)NC(=O)[C@H]([C@@H](C)O)NC(=O)CSC[C@@H](C(=O)N[C@@H](CCN)C(=O)NCCOCCOCC(=O)NCCCCCCCCCCC(=O)O)NC(=O)[C@H]([C@@H](C)O)NC(=O)[C@H](C(C)C)NC(=O)[C@H](CC2CCCCC2)NC(=O)[C@H](CCC(=O)O)NC1=O` [Example 1398] ({CH2CO}-TY(Carboxymethyl)DWY(Carboxymethyl)[Bip]Y(Carboxymethyl)[NMeA][dL]E[Cha]VTC[Dab][AEEA][Aun]-OH; thioether N-14), the negative logarithm of the IC50 (pIC50) is 7.07. The figure for `CC(C)C[C@H]1NC(=O)[C@H](C)N(C)C(=O)[C@H](Cc2ccc(OCC(=O)O)cc2)NC(=O)[C@H](Cc2ccc(-c3ccccc3)cc2)NC(=O)[C@H](Cc2ccc(OCC(=O)O)cc2)NC(=O)[C@H](Cc2c[nH]c3ccccc23)NC(=O)[C@H](CC(=O)O)NC(=O)[C@H](Cc2ccc(OCC(=O)O)cc2)NC(=O)[C@H]([C@@H](C)O)NC(=O)CSC[C@@H](C(=O)N[C@@H](CCN)C(=O)NCCOCCOCC(=O)NCCCCCCCCCCC(=O)O)NC(=O)[C@H](CO)NC(=O)[C@H](C(C)C)NC(=O)[C@H](CC2CCCCC2)NC(=O)[C@H](CCC(=O)O)NC1=O` [Example 1399] ({CH2CO}-TY(Carboxymethyl)DWY(Carboxymethyl)[Bip]Y(Carboxymethyl)[NMeA][dL]E[Cha]VSC[Dab][AEEA][Aun]-OH; thioether N-14) is 7.16.

Consider `CC(C)C[C@H]1NC(=O)[C@H](C)N(C)C(=O)[C@H](Cc2ccc(OCC(=O)O)cc2)NC(=O)[C@H](Cc2ccc(-c3ccccc3)cc2)NC(=O)[C@H](Cc2ccc(OCC(=O)O)cc2)NC(=O)[C@H](Cc2c[nH]c3ccccc23)NC(=O)[C@H](CC(=O)O)NC(=O)[C@H](Cc2ccc(OCC(=O)O)cc2)NC(=O)[C@H]([C@@H](C)O)NC(=O)CSC[C@@H](C(=O)N[C@@H](CCN)C(=O)NCCOCCOCC(=O)NCCCCCCCCCCC(=O)O)NC(=O)[C@H](CCCN)NC(=O)[C@H](C(C)C)NC(=O)[C@H](CC2CCCCC2)NC(=O)[C@H](CCC(=O)O)NC1=O` [Example 1400] ({CH2CO}-TY(Carboxymethyl)DWY(Carboxymethyl)[Bip]Y(Carboxymethyl)[NMeA][dL]E[Cha]V[Orn]C[Dab][AEEA][Aun]-OH; thioether N-14), for which the pIC50 is 6.51. As for `CC(C)C[C@H]1NC(=O)[C@H](C)N(C)C(=O)[C@H](Cc2ccc(OCC(=O)O)cc2)NC(=O)[C@H](Cc2ccc(-c3ccccc3)cc2)NC(=O)[C@H](Cc2ccc(OCC(=O)O)cc2)NC(=O)[C@H](Cc2c[nH]c3ccccc23)NC(=O)[C@H](CC(=O)O)NC(=O)[C@H](Cc2ccc(OCC(=O)O)cc2)NC(=O)[C@H]([C@@H](C)O)NC(=O)CSC[C@@H](C(=O)N[C@@H](CCN)C(=O)NCCOCCOCC(=O)NCCCCCCCCCCC(=O)O)NC(=O)[C@H](CC(N)=O)NC(=O)[C@H](C(C)C)NC(=O)[C@H](CC2CCCCC2)NC(=O)[C@H](CCC(=O)O)NC1=O` [Example 1401] ({CH2CO}-TY(Carboxymethyl)DWY(Carboxymethyl)[Bip]Y(Carboxymethyl)[NMeA][dL]E[Cha]VNC[Dab][AEEA][Aun]-OH; thioether N-14), the figure is 7.19; as for `Cc1cccc(C[C@@H]2NC(=O)[C@H](CC(=O)O)NC(=O)[C@H](Cc3ccc(OCC(=O)O)cc3)NC(=O)[C@@H]([C@H](C)O)NC(=O)CSC[C@@H](C(=O)NCCOCCOCC(=O)NCCCCCCCCCCC(=O)O)NC(=O)[C@H]([C@@H](C)O)NC(=O)[C@H](C(C)C)NC(=O)[C@H](CC3CCCCC3)NC(=O)[C@H](CCN)NC(=O)[C@@H](CC(C)C)NC(=O)[C@H](C)N(C)C(=O)[C@H](CCCNC(N)=O)NC(=O)[C@H](Cc3ccc(-c4ccccc4)cc3)NC(=O)[C@H](C(C)C)NC2=O)c1` [Example 1402] ({CH2CO}-[dT]Y(Carboxymethyl)D[Phe(3-Me)]V[Bip][Cit][NMeA][dL][Dab][Cha]VTC[AEEA][Aun]-OH; thioether N-14), 6.69. The figure for `Cc1cccc(C[C@@H]2NC(=O)[C@H](CC(=O)O)NC(=O)[C@H](Cc3ccc(OCC(=O)O)cc3)NC(=O)[C@H]([C@@H](C)O)NC(=O)CSC[C@@H](C(=O)NCCOCCOCC(=O)NCCCCCCCCCCC(=O)O)NC(=O)[C@H](CO)NC(=O)[C@H](C(C)(C)O)NC(=O)[C@H](CC3CCCCC3)NC(=O)[C@H](CCN)NC(=O)[C@@H](CC(C)C)NC(=O)[C@H](C)N(C)C(=O)[C@H](CCCNC(N)=O)NC(=O)[C@H](Cc3ccc(-c4ccccc4)cc3)NC(=O)[C@H](C(C)C)NC2=O)c1` [Example 1403] ({CH2CO}-TY(Carboxymethyl)D[Phe(3-Me)]V[Bip][Cit][NMeA][dL][Dab][Cha][Val(3-OH)]SC[AEEA][Aun]-OH; thioether N-14) is 8.30; for `Cc1cccc(C[C@@H]2NC(=O)[C@H](CC(=O)O)NC(=O)[C@H](Cc3ccc(C(=O)O)cc3)NC(=O)[C@H](Cc3ccncc3)NC(=O)CSC[C@@H](C(=O)N[C@@H](CCN)C(=O)NCCOCCOCC(=O)NCCCCCCCCCCC(=O)O)NC(=O)[C@H](CCCN)NC(=O)[C@H](C(C)C)NC(=O)[C@H](CC3CCCCC3)NC(=O)[C@H](CCN)NC(=O)[C@@H](CC(C)C)NC(=O)[C@H](C)N(C)C(=O)[C@H](CCCNC(N)=O)NC(=O)[C@H](Cc3ccc(-c4ccccc4)cc3)NC(=O)[C@H](Cc3ccc(C(=O)O)cc3)NC2=O)c1` [Example 1404] ({CH2CO}-[4Pal][Phe(4-COOH)]D[Phe(3-Me)][Phe(4-COOH)][Bip][Cit][NMeA][dL][Dab][Cha]V[Orn]C[Dab][AEEA][Aun]-OH; thioether N-14) it is 7.58.
